# Laboratory results: US11208412B2 (DAEGU-GYEONGBUK MEDICAL INNOVATION FOUNDATION, priority 2017, dated 2021)
# Target: T1, recombinant LRRK2 kinase (Homo sapiens, UniProt Q5S007)
# T1 construct: purchased Signal Chem, Richmond, BC, Canada
# Experiment: LRRK2 kinase inhibition (Kinase-Glo luminescence)
# Type: biochemical
# Conditions: IC50 grade; 25 μmol/L ATP, LRRKtide, 30° C. 2 hours; read-out: Enzyme activity LRRK2
# Description: Upon completion of the reaction, an equal amount of Kinase-Glo (Promega, Madison, Wis.) solution was added thereto, followed by reaction for 40 minutes. A detection solution was added thereto, followed by further reaction at room temperature for 30 minutes. Then, IC50 of kinase was calculated by measuring the amount of luciferase using a microplate ELISA reader (Bio-Tek).
# T1 sequence (Q5S007 whole entry): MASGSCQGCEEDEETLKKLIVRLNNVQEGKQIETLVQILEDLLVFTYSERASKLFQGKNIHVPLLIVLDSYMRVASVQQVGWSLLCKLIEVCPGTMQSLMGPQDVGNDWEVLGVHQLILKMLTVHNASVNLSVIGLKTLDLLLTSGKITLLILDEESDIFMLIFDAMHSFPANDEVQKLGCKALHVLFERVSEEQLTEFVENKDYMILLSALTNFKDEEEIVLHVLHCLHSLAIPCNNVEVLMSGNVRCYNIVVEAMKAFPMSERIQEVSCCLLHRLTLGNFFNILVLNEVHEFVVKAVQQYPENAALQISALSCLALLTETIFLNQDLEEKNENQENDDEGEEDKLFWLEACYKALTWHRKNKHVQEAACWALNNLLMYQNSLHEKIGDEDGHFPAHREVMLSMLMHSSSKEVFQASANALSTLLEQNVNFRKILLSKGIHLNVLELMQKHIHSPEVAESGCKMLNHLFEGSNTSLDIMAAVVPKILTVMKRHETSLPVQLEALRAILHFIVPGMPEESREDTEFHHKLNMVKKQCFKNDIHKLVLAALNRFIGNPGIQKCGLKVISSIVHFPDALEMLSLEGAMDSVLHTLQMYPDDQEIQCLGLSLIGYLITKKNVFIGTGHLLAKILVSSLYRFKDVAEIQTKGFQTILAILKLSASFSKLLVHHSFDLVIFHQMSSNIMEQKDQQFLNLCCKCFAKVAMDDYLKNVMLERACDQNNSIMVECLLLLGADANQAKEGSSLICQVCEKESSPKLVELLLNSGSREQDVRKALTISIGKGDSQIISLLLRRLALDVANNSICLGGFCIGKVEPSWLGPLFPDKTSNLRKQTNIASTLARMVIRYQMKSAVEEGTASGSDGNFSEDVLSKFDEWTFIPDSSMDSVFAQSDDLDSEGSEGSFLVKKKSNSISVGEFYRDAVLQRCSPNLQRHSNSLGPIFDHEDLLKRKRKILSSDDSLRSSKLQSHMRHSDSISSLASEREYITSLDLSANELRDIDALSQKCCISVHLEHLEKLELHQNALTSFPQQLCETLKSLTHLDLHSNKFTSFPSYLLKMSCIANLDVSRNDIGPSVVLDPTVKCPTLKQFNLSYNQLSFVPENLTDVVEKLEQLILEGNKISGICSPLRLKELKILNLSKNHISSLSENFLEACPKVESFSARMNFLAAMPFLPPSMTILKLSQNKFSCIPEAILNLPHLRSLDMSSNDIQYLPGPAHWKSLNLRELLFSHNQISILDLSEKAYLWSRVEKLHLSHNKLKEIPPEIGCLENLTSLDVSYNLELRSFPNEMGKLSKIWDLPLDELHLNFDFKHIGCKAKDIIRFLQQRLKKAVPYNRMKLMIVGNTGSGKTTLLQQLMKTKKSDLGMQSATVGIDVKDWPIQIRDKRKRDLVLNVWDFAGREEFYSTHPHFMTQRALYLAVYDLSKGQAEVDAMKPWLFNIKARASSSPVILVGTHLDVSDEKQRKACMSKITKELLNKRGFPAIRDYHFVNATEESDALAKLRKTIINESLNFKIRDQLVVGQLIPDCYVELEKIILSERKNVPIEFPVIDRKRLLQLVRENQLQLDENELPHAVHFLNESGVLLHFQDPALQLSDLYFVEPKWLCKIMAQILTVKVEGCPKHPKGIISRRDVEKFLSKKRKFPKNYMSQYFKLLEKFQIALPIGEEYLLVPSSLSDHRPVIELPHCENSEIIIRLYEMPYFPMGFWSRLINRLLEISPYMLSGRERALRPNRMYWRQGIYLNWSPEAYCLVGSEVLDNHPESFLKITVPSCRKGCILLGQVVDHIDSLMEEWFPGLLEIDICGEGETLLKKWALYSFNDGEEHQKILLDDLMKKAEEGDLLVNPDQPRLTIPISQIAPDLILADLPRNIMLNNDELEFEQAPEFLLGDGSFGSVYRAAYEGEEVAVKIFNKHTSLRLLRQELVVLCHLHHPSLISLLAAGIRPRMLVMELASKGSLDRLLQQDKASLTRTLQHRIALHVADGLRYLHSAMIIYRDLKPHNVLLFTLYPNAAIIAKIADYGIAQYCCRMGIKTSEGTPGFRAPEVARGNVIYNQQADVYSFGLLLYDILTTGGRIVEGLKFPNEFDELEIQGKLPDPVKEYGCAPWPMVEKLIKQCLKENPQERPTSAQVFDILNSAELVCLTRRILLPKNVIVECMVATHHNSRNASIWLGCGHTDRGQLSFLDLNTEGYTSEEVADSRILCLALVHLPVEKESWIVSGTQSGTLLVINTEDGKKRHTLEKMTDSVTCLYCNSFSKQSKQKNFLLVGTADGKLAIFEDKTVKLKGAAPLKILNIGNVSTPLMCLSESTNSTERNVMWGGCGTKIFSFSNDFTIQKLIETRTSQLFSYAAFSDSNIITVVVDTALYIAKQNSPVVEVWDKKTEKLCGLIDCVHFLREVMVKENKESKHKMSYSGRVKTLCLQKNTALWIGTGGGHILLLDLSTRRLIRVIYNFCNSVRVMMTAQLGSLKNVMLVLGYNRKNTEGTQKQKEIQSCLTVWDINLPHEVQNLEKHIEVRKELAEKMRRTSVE
row,SMILES,IC50 [nM]
1,"CCNc1nc(Nc2ccn(C)n2)nc2[nH]cc(C#N)c12 [Example 5, 4-(ethylamino)-2-((1-methyl-1H-pyrazole-3-yl)amino)-7H-pyrrolo[2,3-d]pyrimidine-5-carbonitrile]",< 10
2,"CCNc1nc(Nc2ccc(C(=O)N3C[C@@H](C)O[C@@H](C)C3)cc2OC)nc2[nH]cc(C#N)c12 [Example 24, 2-((4-((2R,6S)-2,6-dimethylmorpholine-4-carbonyl)-2-methoxyphenyl)amino)-4-(ethylamino)-7H-pyrrolo[2,3-d]pyrimidine-5-carbonitrile]",< 10
3,"CCNc1nc(Nc2ccc3c(c2)CN(C)C3=O)nc2[nH]cc(C(F)(F)F)c12 [Example 136, 5-((4-(ethylamino)-5-(trifluoromethyl)-7H-pyrrolo[2,3-d]pyrimidine-2-yl)amino)-2-methylisoindolin-1-one]",10 to 100
4,"Cc1nn(C(C)(C)C#N)cc1Nc1nc(NC2(C)CC2)c2c(C#N)c[nH]c2n1 [Example 49, 2-((1-(2-cyanopropane-2-yl)-3-methyl-1H-pyrazole-4-yl)amino)-4-((1-methylcyclopropyl)amino)-7H-pyrrolo[2,3-d]pyrimidine-5-carbonitrile]",< 10
5,"CNc1nc(Nc2ccc(C(=O)N3CCO[C@H](C)C3)cc2OC)nc2[nH]cc(C#N)c12 [Example 20, (R)-2-((2-methoxy-4-(2-methylmorpholine-4-carbonyl)phenyl)amino)-4-(methylamino)-7H-pyrrolo[2,3-d]pyrimidine-5-carbonitrile]",< 10
6,"CCNc1nc(Nc2sc(C(C)(C)C#N)nc2C)nc2[nH]cc(C#N)c12 [Example 132, 2-((2-(2-cyanopropane-2-yl)-4-methylthiazole-5-yl)amino)-4-(ethylamino)-7H-pyrrolo[2,3-d]pyrimidine-5-carbonitrile]",10 to 100
7,"CNc1nc(Nc2cc(F)c(C(=O)NC3CCN(C)CC3)cc2OC)nc2[nH]cc(C#N)c12 [Example 65, 4-((5-cyano-4-(methylamino)-7H-pyrrolo[2,3-d]pyrimidine-2-yl)amino)-2-fluoro-5-methoxy-N-(1-methylpiperidine-4-yl)benzamide]",< 10
8,"CCNc1nc(Nc2ccc(C(=O)N3CCC(F)(F)CC3)cc2OC)nc2[nH]cc(C(F)(F)F)c12 [Example 110, (4,4-difluoropiperidine-1-yl)(4-((4-(ethylamino)-5-(trifluoromethyl)-7H-pyrrolo[2,3-d]pyrimidine-2-yl)amino)-3-methoxyphenyl)methanone]",> 100
9,"COc1cc(C(=O)N2CCO[C@@H](C)C2)ccc1Nc1nc(OC2(C)CC2)c2c(C#N)c[nH]c2n1 [Example 99, (S)-2-((2-methoxy-4-(2-methylmorpholine-4-carbonyl)phenyl)amino)-4-(1-methylcyclopropoxy)-7H-pyrrolo[2,3-d]pyrimidine-5-carbonitrile]",< 10
10,CNc1nc(Nc2ccc(C(=O)N3CCN(C4COC4)CC3)cc2OC)nc2[nH]cc(C#N)c12 [Example 57],< 10
11,"COc1cc(C(=O)N2CCOCC2)c(F)cc1Nc1nc(NC2(C)CC2)c2c(C#N)c[nH]c2n1 [Example 37, 2-((5-fluoro-2-methoxy-4-(morpholine-4-carbonyl)phenyl)amino)-4-((1-methylcyclopropyl)amino)-7H-pyrrolo[2,3-d]pyrimidine-5-carbonitrile]",< 10
12,COc1cc(C(=O)N2CCC(N3CCOCC3)CC2)ccc1Nc1nc(OC2CCOCC2)c2c(C#N)c[nH]c2n1 [Example 85],< 10
13,"COc1cc(C(=O)N2CCO[C@H](C)C2)ccc1Nc1nc(OC2(C)CC2)c2c(C#N)c[nH]c2n1 [Example 98, (R)-2-((2-methoxy-4-(2-methylmorpholine-4-carbonyl)phenyl)amino)-4-(1-methylcyclopropoxy)-7H-pyrrolo[2,3d]carbonitrile]",10 to 100
14,"CNc1nc(Nc2cnn(C(C)(C)C#N)c2Cl)nc2[nH]cc(C#N)c12 [Example 73, 2-((5-chloro-1-(2-cyanopropane-2-yl)-1H-pyrazole-4-yl)amino)-4-(methylamino)-7H-pyrrolo[2,3-d]pyrimidine-5-carbonitrile]",< 10
15,"CCNc1nc(Nc2ccc(C(=O)N3CCO[C@H](C)C3)cc2OC)nc2[nH]cc(C#N)c12 [Example 25, (R)-4-(ethylamino)-2-((2-methoxy-4-(2-methylmorpholine-4-carbonyl)phenyl)amino)-7H-pyrrolo[2,3-d]pyrimidine-5-carbonitrile]",< 10
16,"COc1cc(C(=O)N2CCOCC2)ccc1Nc1nc(NC2CC2)c2c(C(F)(F)F)c[nH]c2n1 [Example 118, (4-((4-(cyclopropylamino)-5-(trifluoromethyl)-7H-pyrrolo[2,3-d]pyrimidine-2-yl)amino)-3-methoxyphenyl)(morpholino)methanone]",< 10
17,"COc1cc(C(=O)N2CCO[C@@H](C)C2)ccc1Nc1nc(NC2(C)CC2)c2c(C#N)c[nH]c2n1 [Example 43, (S)-2-((2-methoxy-4-(2-methylmorpholine-4-carbonyl)phenyl)amino)-4-((1-methylcyclopropyl)amino)-7H-pyrrolo[2,3-d]pyrimidine-5-carbonitrile]",< 10
18,"COc1cc(C(=O)N2CCOCC2)c(F)cc1Nc1nc(O[C@H]2CCOC2)c2c(C#N)c[nH]c2n1 [Example 92, (S)-2-((5-fluoro-2-methoxy-4-(morpholine-4-carbonyl)phenyl)amino)-4-((tetrahydrofuran-3-yl)oxy)-7H-pyrrolo[2,3 d]pyrimidine-5-carbonitrile]",< 10
19,"CCNc1nc(Nc2ccc(C(=O)N3CCO[C@H](C)C3)cc2OC)nc2[nH]cc(C(F)(F)F)c12 [Example 108, (R)-(4-((4-(ethylamino)-5-(trifluoromethyl)-7H-pyrrolo[2,3-d]pyrimidine-2-yl)amino)-3-methoxyphenyl)(2-methylmorpholino)methanone]",10 to 100
20,"CCNc1nc(Nc2cnn([C@H]3CCN(C4COC4)C[C@@H]3F)c2Cl)nc2[nH]cc(C#N)c12 [Example 51, 2-((5-chloro-1-((3S,4S)-3-fluoro-1-(oxetane-3-yl)piperidine-4-yl)-1H-pyrazole-4-yl)amino)-4-(ethylamino)-7H-pyrrolo[2,3-d]pyrimidine-5-carbonitrile]",< 10
21,"CCNc1nc(Nc2cc(F)c(C(=O)N3CCC(N4CCOCC4)CC3)cc2OC)nc2[nH]cc(C#N)c12 [Example 7, 4-(ethylamino)-2-((5-fluoro-2-methoxy-4-(4-morpholinopiperidine-1-carbonyl)phenyl)amino)-7H-pyrrolo[2,3-d]pyrimidine-5-carbonitrile]",< 10
22,"COc1cc(C(=O)N2CCOCC2)ccc1Nc1nc(NC2(C)CC2)c2c(C#N)c[nH]c2n1 [Example 36, 2-((2-methoxy-4-(morpholine-4-carbonyl)phenyl)amino)-4-((1-methylcyclopropyl)amino)-7H-pyrrolo[2,3-d]pyrimidine-5-carbonitrile]",< 10
23,CCNc1nc(Nc2ccc(C(=O)N3C[C@@H](C)O[C@@H](C)C3)cc2OC)nc2[nH]cc(C(F)(F)F)c12 [Example 109],> 100
24,"CNc1nc(Nc2cn(C(C)(C)C#N)nc2C)nc2[nH]cc(C#N)c12 [Example 47, 2-((1-(2-cyanopropane-2-yl)-3-methyl-1H-pyrazole-4-yl)amino)-4-(methylamino)-7H-pyrrolo[2,3-d]pyrimidine-5-carbonitrile]",< 10
25,"CNc1nc(Nc2cnn(C)c2C)nc2[nH]cc(C#N)c12 [Example 29, 6-((1,5-dimethyl-1H-pyrazole-4-yl)amino)-4-(methylamino)-1H-pyrrolo[2,3-b]pyrimidine-3-carbonitrile]",10 to 100
26,"COc1cc(C(=O)NC2CCN(C)CC2)c(F)cc1Nc1nc(NC2(C)CC2)c2c(C#N)c[nH]c2n1 [Example 83, 4-((5-cyano-4-((1-methylcyclopropyl)amino)-7H-pyrrolo[2,3-d]pyrimidine-2-yl)amino)-2-fluoro-5-methoxy-N-(1-methylpiperidine-4-yl)benzamide]",< 10
27,"CCCNc1nc(Nc2cc(F)c(C(=O)N3CCOCC3)cc2OC)nc2[nH]cc(C#N)c12 [Example 14, 2-((5-fluoro-2-methoxy-4-(morpholine-4-carbonyl)phenyl)amino)-4-(propylamino)-7H-pyrrolo[2,3-d]pyrimidine-5-carbonitrile]",10 to 100
